What all share (format): functional
Test [1] relates to Escherichia coli. Nature of the test: Antimicrobial activity against Escherichia coli 25922.
For test [2], the system named is Pseudomonas aeruginosa. Nature of the test: Antimicrobial activity against Pseudomonas aeruginosa ATCC 10145.
The subject of test [3] is Pseudomonas aeruginosa. Kind of test: Antimicrobial activity against Pseudomonas aeruginosa ATCC 27853.

As a reminder, the MIC is the least concentration at which growth counts as inhibited. A higher MIC goes with weaker potency.

Take POLYMYXIN B: the MIC in test [1] is 0.78 µg/mL; in test [2] it was 3.13 µg/mL; in test [3] it was 3.13 µg/mL.

For the origin of these results see ChEMBL document CHEMBL1275257, “Antimicrobial activity of CHIR-090, an inhibitor of lipopolysaccharide biosynthesis, against the Burkholderia cepacia complex” (2010).
